pIC50: −log10 of the molar value.
System: 817829-284-R-J1-PDC complex spheroids, viability
Experiment: Anticancer human tumor 817829-284-R-J1-PDC patient-derived colon adenocarcinoma cell line growth inhibition [GQUAD]
Conditions: for pIC50: curve of first compound; for viability, T/C: stronger effect = lower value
How it was run: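 Tumor cells were grown as complex spheroids with HUVEC endothelial cells and mesenchymal stem cells as stroma. G-quadruplex stabilizers were combined with targeted agents over half-log dilutions from near the clinical Cmax, or from 10 microM.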

[1] = second compound 0.0316 µM, first compound 0.0316 µM
[2] = second compound 0.0316 µM, first compound 0.1 µM
[3] = second compound 0.0316 µM, first compound 0.316 µM
[4] = second compound 0.0316 µM, first compound 1 µM
[5] = second compound 0.0316 µM, first compound 3.16 µM
[6] = second compound 0.0316 µM, first compound 10 µM
[7] = second compound 0.1 µM, first compound 0.0316 µM
[8] = second compound 0.1 µM, first compound 0.1 µM
[9] = second compound 0.1 µM, first compound 0.316 µM
[10] = second compound 0.1 µM, first compound 1 µM
[11] = second compound 0.1 µM, first compound 3.16 µM
[12] = second compound 0.1 µM, first compound 10 µM
[13] = second compound 0.316 µM, first compound 0.0316 µM
[14] = second compound 0.316 µM, first compound 0.1 µM
[15] = second compound 0.316 µM, first compound 0.316 µM
[16] = second compound 0.316 µM, first compound 1 µM
[17] = second compound 0.316 µM, first compound 3.16 µM
[18] = second compound 0.316 µM, first compound 10 µM
[19] = second compound 1 µM, first compound 0.0316 µM
[20] = second compound 1 µM, first compound 0.1 µM
[21] = second compound 1 µM, first compound 0.316 µM
[22] = second compound 1 µM, first compound 1 µM
[23] = second compound 1 µM, first compound 3.16 µM
[24] = second compound 1 µM, first compound 10 µM
[25] = second compound 3.16 µM, first compound 0.0316 µM
[26] = second compound 3.16 µM, first compound 0.1 µM
[27] = second compound 3.16 µM, first compound 0.316 µM
[28] = second compound 3.16 µM, first compound 1 µM
[29] = second compound 3.16 µM, first compound 3.16 µM
[30] = second compound 3.16 µM, first compound 10 µM
[31] = second compound 10 µM, first compound 0.0316 µM
[32] = second compound 10 µM, first compound 0.1 µM
[33] = second compound 10 µM, first compound 0.316 µM
[34] = second compound 10 µM, first compound 1 µM
[35] = second compound 10 µM, first compound 3.16 µM
[36] = second compound 10 µM, first compound 10 µM
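Further: spheroids exposed to agents for 7 days before readout.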
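Wherever viability, T/C is given: percent viability relative to DMSO vehicle control taken as 100%.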

## COc1ncnc(C2CC2)c1-c1ncc2cnn(Cc3ccc(-c4nc(C(F)(F)F)cn4C(C)C)cc3)c2n1 + CN(C)c1ccc(Nc2c3ccc(NC(=O)CCN4CCCC4)cc3nc3cc(NC(=O)CCN4CCCC4)ccc23)cc1
Second compound 0.0316 µM
  pIC50: < 5.00
Second compound 0.1 µM
  pIC50: < 5.00
Second compound 0.316 µM
  pIC50: < 5.00
Second compound 1 µM
  pIC50: < 5.00
Second compound 3.16 µM
  pIC50: < 5.00
Second compound 10 µM
  pIC50: 5.35
[1]
  viability, T/C: 102%
[2]
  viability, T/C: 119%
[3]
  viability, T/C: 106%
[4]
  viability, T/C: 107%
[5]
  viability, T/C: 108%
[6]
  viability, T/C: 115%
[7]
  viability, T/C: 100%
[8]
  viability, T/C: 123%
[9]
  viability, T/C: 104%
[10]
  viability, T/C: 105%
[11]
  viability, T/C: 111%
[12]
  viability, T/C: 114%
[13]
  viability, T/C: 100%
[14]
  viability, T/C: 118%
[15]
  viability, T/C: 102%
[16]
  viability, T/C: 107%
[17]
  viability, T/C: 105%
[18]
  viability, T/C: 119%
[19]
  viability, T/C: 107%
[20]
  viability, T/C: 112%
[21]
  viability, T/C: 115%
[22]
  viability, T/C: 104%
[23]
  viability, T/C: 104%
[24]
  viability, T/C: 114%
[25]
  viability, T/C: 106%
[26]
  viability, T/C: 103%
[27]
  viability, T/C: 100%
[28]
  viability, T/C: 93.2%
[29]
  viability, T/C: 103%
[30]
  viability, T/C: 97.5%
[31]
  viability, T/C: 114%
[32]
  viability, T/C: 108%
[33]
  viability, T/C: 91.6%
[34]
  viability, T/C: 95.3%
[35]
  viability, T/C: 53.8%
[36]
  viability, T/C: 31.1%

## CC(C)n1c(=O)n(C)c2cnc3cc(F)c(-c4ccc(OCCCN5CCCCC5)nc4)cc3c21 + Cc1[nH]c2ccc(F)cc2c1-c1nc2c3cccnc3c3ncccc3c2[nH]1
Second compound 0.0316 µM
  pIC50: < 5.00
Second compound 0.1 µM
  pIC50: < 5.00
Second compound 0.316 µM
  pIC50: < 5.00
Second compound 1 µM
  pIC50: 5.11
Second compound 3.16 µM
  pIC50: 5.34
Second compound 10 µM
  pIC50: 6.26
[1]
  viability, T/C: 120%
[2]
  viability, T/C: 82.6%
[3]
  viability, T/C: 84.8%
[4]
  viability, T/C: 94.4%
[5]
  viability, T/C: 104%
[6]
  viability, T/C: 94.9%
[7]
  viability, T/C: 90.8%
[8]
  viability, T/C: 106%
[9]
  viability, T/C: 95.8%
[10]
  viability, T/C: 107%
[11]
  viability, T/C: 107%
[12]
  viability, T/C: 117%
[13]
  viability, T/C: 79.7%
[14]
  viability, T/C: 99.8%
[15]
  viability, T/C: 103%
[16]
  viability, T/C: 103%
[17]
  viability, T/C: 117%
[18]
  viability, T/C: 103%
[19]
  viability, T/C: 87.5%
[20]
  viability, T/C: 104%
[21]
  viability, T/C: 120%
[22]
  viability, T/C: 102%
[23]
  viability, T/C: 115%
[24]
  viability, T/C: 35%
[25]
  viability, T/C: 76.6%
[26]
  viability, T/C: 90.9%
[27]
  viability, T/C: 64.6%
[28]
  viability, T/C: 78%
[29]
  viability, T/C: 69.8%
[30]
  viability, T/C: 7.73%
[31]
  viability, T/C: 65.2%
[32]
  viability, T/C: 73.3%
[33]
  viability, T/C: 49.2%
[34]
  viability, T/C: 46.5%
[35]
  viability, T/C: 21.9%
[36]
  viability, T/C: 5.4%

## CC1COCCN1c1cc(-c2ccnn2C)c2ccnc(-c3ccn[nH]3)c2n1 (stereo unspecified) + Cc1[nH]c2ccc(F)cc2c1-c1nc2c3cccnc3c3ncccc3c2[nH]1
Second compound 0.0316 µM
  pIC50: 7.31
Second compound 0.1 µM
  pIC50: > 7.50
Second compound 0.316 µM
  pIC50: > 7.50
Second compound 1 µM
  pIC50: > 7.50
Second compound 3.16 µM
  pIC50: > 7.50
Second compound 10 µM
  pIC50: > 7.50
[1]
  viability, T/C: 72.5%
[2]
  viability, T/C: 12.9%
[3]
  viability, T/C: 9.49%
[4]
  viability, T/C: 4.92%
[5]
  viability, T/C: 6.02%
[6]
  viability, T/C: 4.47%
[7]
  viability, T/C: 46.3%
[8]
  viability, T/C: 19.1%
[9]
  viability, T/C: 8.08%
[10]
  viability, T/C: 6.91%
[11]
  viability, T/C: 5.94%
[12]
  viability, T/C: 4.22%
[13]
  viability, T/C: 48.6%
[14]
  viability, T/C: 19.7%
[15]
  viability, T/C: 9.27%
[16]
  viability, T/C: 7.38%
[17]
  viability, T/C: 5.29%
[18]
  viability, T/C: 4.46%
[19]
  viability, T/C: 38.1%
[20]
  viability, T/C: 19.6%
[21]
  viability, T/C: 7.66%
[22]
  viability, T/C: 6.25%
[23]
  viability, T/C: 5.62%
[24]
  viability, T/C: 4.21%
[25]
  viability, T/C: 35.8%
[26]
  viability, T/C: 8.61%
[27]
  viability, T/C: 5.3%
[28]
  viability, T/C: 3.85%
[29]
  viability, T/C: 3.53%
[30]
  viability, T/C: 3.13%
[31]
  viability, T/C: 28.2%
[32]
  viability, T/C: 4.74%
[33]
  viability, T/C: 3.18%
[34]
  viability, T/C: 3.81%
[35]
  viability, T/C: 2.63%
[36]
  viability, T/C: 2.34%
